According to ChEMBL document CHEMBL1153101, “Hit to lead studies on (hetero)arylpyrimidines--agonists of the canonical Wnt-beta-catenin cellular messaging system” (Bioorg Med Chem Lett, 2010):
pEC50, pIC50: −log10 of the molar value. In brackets after ≈: the same amount, converted by molar mass. Activity calls are given as the source filed them. The rule behind the calls is not given here.

Experiments:
[1] = Activation of Wnt-3a/Dkk-1 expressed in human U2OS cells by TCF-luciferase assay; type: cell-based
[2] = test system: U2OS; assay: Activation of Wnt-3a/Dkk-1 expressed in human U2OS cells at 20 uM by TCF-luciferase assay relative to control; type: cell-based
[3] = Inhibition of Wnt-3a/Dkk-1-mediated [32P]GSk3beta phosphorylation in human U2OS cells at 20 uM by TCF-luciferase assay relative to control; type: cell-based
[4] = test system: Mus musculus; assay: Osteogenic activity in wild type C57BL/6 mouse calvaria in vivo assessed as increase in mineral apposition rate at 0.03 mg/kg/day by histomorphometry measurement
[5] = test system: Mus musculus; assay: Osteogenic activity in wild type C57BL/6 mouse calvaria in vivo assessed as non phosphorylated beta-catenin at 0.3 mg/kg/day by immunohistochemistry
[6] = test system: Mus musculus; assay: Osteogenic activity in wild type C57BL/6 mouse calvaria in vivo assessed as non phosphorylated beta-catenin at 1 mg/kg/day by immunohistochemistry
[7] = test system: Mus musculus; assay: Osteogenic activity in wild type C57BL/6 mouse calvaria in vivo assessed as increase in mineral apposition rate at 0.1 mg/kg/day by histomorphometry measurement
[8] = Permeability by PAMPA; type: ADME; conditions: read-out: permeability
[9] = Metabolic stability in rat liver microsomes; type: ADME, Microsome
[10] = Aqueous solubility of the compound; type: physicochemical

| pEC50 [1] | SMILES | fold change (FC) [2] | further results |
| --- | --- | --- | --- |
| 4.92 | c1ccc2cc(-c3ccnc(NCCc4c[nH]cn4)n3)ccc2c1 | 1.1 |  |
|  | NC(=O)Cn1cnc(C[C@@H](CO)Nc2nccc(-c3ccc4ccccc4c3)n2)c1 | 3.9 |  |
| 4.91 | Cc1[nH]c2ccc(O)cc2c1CCNc1nccc(-c2cccnc2)n1 | 5.1 |  |
|  | OC[C@H](Cc1cn(Cc2cc(F)cc(F)c2)cn1)Nc1nccc(-c2ccc3ccccc3c2)n1 | 2 |  |
| 4.84 | C#CCn1cnc(C[C@@H](CO)Nc2nccc(-c3cc4ccccc4s3)n2)c1 | 3 |  |
| 4.33 | O=[N+]([O-])c1cccc(-c2ccnc(NCCCn3ccnc3)n2)c1 | 3.6 |  |
| 5.06 | c1cncc(-c2ccnc(NCCCn3ccnc3)n2)c1 | 4.7 |  |
|  | N#CCCn1cnc(C[C@@H](CO)Nc2nccc(-c3ccc4ccccc4c3)n2)c1 | 5.5 |  |
|  | N#CCCn1cnc(C[C@@H](CO)Nc2nccc(-c3cc4ccccc4s3)n2)c1 | 4.1 |  |
| 5.34 | c1cncc(CCNc2nccc(-c3ccncc3)n2)c1 | 2.8 |  |
| 5.38 | c1cc(-c2ccnc(NCCCn3ccnc3)n2)ccn1 | 2.9 | pIC50 [3]: 4.29; Activity [4]: Active; Activity [5]: Active; Activity [6]: Active; Activity [7]: Active |
| 5.39 | c1cncc(-c2ccnc(NCCc3c[nH]c4ccccc34)n2)c1 | 10 |  |
| 4.84 | CCOC[C@H](Cc1c[nH]cn1)Nc1nccc(-c2ccc3ccccc3c2)n1 | 1.9 |  |
| 4.53 | Cc1cc(C)n(CCCNc2nccc(-c3ccncc3)n2)n1 | 2.1 |  |
| 5.48 | c1ccc2sc(-c3ccnc(NCCc4c[nH]cn4)n3)cc2c1 | 3.7 |  |
| 5.57 | c1ccc2c(CCNc3nccc(-c4ccncc4)n3)c[nH]c2c1 | 7.5 |  |
| 4.96 | Fc1c(COC[C@H](Cc2c[nH]cn2)Nc2nccc(-c3ccc4ccccc4c3)n2)cccc1C(F)(F)F | 1.6 |  |
| 4.69 | c1cncc(-c2ccnc(NCCc3ccncc3)n2)c1 | 3.4 |  |
| 5.17 | OC[C@H](Cc1c[nH]cn1)Nc1nccc(-c2ccc3ccccc3c2)n1 | 4.9 | Papp [8]: 0.13 ×10⁻⁶ cm/s; half-life [9]: ≥ 1.33 h; solubility [10]: 65 µg/mL (≈ 188 µM); Activity [4]: Active; Activity [7]: Active |
| 4.68 | C=C1CCCCC1OC[C@H](Cc1c[nH]cn1)Nc1nccc(-c2ccc3ccccc3c2)n1 (stereo partly drawn) | 2.2 |  |
| 4.80 | OC[C@H](Cc1cn(Cc2cc(F)cc(F)c2)cn1)Nc1nccc(-c2cc3ccccc3s2)n1 | 1.7 |  |
|  | C#CCOC[C@H](Cc1c[nH]cn1)Nc1nccc(-c2cc3ccccc3s2)n1 | 3.5 |  |
| 5.17 | c1cc(CCNc2nccc(-c3ccncc3)n2)ccn1 | 4.3 |  |

| SMILES | pEC50 [1] | fold change (FC) [2] | further results |
| --- | --- | --- | --- |
| c1cncc(-c2ccnc(NCCc3c[nH]cn3)n2)c1 | 4.54 | 3.1 |  |
